From patent US12600726B2, “Antagonists of the muscarinic acetylcholine receptor M4” (Vanderbilt University, priority 2017, dated 2026) come the findings set out here.

One assay addresses T1, Human M4 (Homo sapiens, UniProt P08173).
T1 construct: expressed in transfected cells; host or cells: CHO-K1 (ATCC), stably expressing M4 and Gqi5
T1 sequence (P08173 1-479): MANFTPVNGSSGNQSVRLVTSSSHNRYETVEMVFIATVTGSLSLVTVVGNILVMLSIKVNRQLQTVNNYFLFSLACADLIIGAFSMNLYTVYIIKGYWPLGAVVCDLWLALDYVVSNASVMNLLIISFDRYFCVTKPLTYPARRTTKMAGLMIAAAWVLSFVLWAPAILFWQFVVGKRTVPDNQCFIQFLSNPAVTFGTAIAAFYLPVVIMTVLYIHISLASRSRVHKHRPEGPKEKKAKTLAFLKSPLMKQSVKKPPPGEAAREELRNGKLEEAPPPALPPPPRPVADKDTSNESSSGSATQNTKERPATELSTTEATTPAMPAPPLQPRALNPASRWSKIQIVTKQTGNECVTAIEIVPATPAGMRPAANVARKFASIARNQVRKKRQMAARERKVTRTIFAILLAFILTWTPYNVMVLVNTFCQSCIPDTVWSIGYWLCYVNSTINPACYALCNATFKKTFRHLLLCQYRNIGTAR
Nature of the assay: mAChR M4 cell-based functional calcium flux assay (human M4/Gqi5/CHO cells). To be noted: for Emin (human M4): % ACh maximum at 30 μM; for IC50: decrease of the response to an EC80 concentration of acetylcholine. An outline of the steps:
(§1)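 CHO-K1 cells stably co-expressing M4 of the given species with chimeric Gqi5 were loaded with Fluo-4 AM and read for calcium flux. Compounds (10-point, 1:3 dilutions) were added first, followed by an acetylcholine EC20 at 143 s and an EC80 at 268 s. IC50 reflects the concentration-dependent fall in the EC80 response, fitted with a four-parameter logistic.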

For a further assay, the target named is T2, Rat M4 (Rattus norvegicus, UniProt P08485).
T2 construct: expressed in transfected cells; host or cells: CHO-K1 (ATCC), stably expressing M4 and Gqi5
T2 sequence (P08485 1-478): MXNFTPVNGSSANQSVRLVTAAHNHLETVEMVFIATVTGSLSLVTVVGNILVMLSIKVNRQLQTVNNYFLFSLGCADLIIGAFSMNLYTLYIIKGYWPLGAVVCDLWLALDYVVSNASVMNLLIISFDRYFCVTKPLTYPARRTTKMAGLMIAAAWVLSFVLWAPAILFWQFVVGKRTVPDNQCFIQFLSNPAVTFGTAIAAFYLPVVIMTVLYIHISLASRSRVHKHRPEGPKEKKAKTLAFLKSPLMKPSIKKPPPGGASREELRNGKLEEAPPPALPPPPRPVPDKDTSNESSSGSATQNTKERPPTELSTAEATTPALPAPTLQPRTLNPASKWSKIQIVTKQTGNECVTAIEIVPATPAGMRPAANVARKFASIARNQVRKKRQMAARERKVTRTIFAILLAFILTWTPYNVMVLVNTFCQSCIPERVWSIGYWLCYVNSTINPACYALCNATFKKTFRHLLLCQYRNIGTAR
Nature of the assay: mAChR M4 cell-based functional calcium flux assay (rat M4/Gqi5/CHO cells). Particulars: for Emin (rat M4): % ACh maximum at 30 μM. An outline of the steps: as §1

Setting [1] is: decrease of the response to an EC80 concentration of acetylcholine.

For the compound `Fc1ccc(Cl)c(-c2ccc(NC[C@@H]3CC34CCN(CC3CCCCC3)CC4)nn2)c1` [Compound 65, (R)-6-(2-chloro-5-fluoro-phenyl)-N-[[6-(cyclohexylmethyl)-6-azaspiro[2.5]octan-2-yl]methyl]pyridazin-3-amine], on Human M4, the “Emin (human M4)” value was found to be 2.62% and the IC50 is 12.7 nM. Besides, the “Emin (rat M4)” value at Rat M4 worked out at 4.33%. Further, the half-maximal inhibitory concentration (IC50) at Rat M4 (setting [1]) came to 0.0809 µM.
Taken in the same sequence, the figures for `CC(C)(C)CCN1CCC2(CC1)CC2CNc1ccc(-c2ccccc2OC(F)(F)F)nn1` (stereo not shown) [Compound 48, N-[[6-(3,3-dimethylbutyl)-6-azaspiro[2.5]octan-2-yl]methyl]-6-[2-(trifluoromethoxy)phenyl]pyridazin-3-amine] were 2.63%, 64.4 nM, 2.26% and 0.387 µM.
For `Cc1nn(C)cc1-c1ccc(NCC2CC23CCN(CC2CCCOC2)CC3)nn1` (stereo not shown) [Compound 60, 6-(1,3-dimethylpyrazol-4-yl)-N-[[6-(tetrahydropyran-3-ylmethyl)-6-azaspiro[2.5]octan-2-yl]methyl]pyridazin-3-amine], at Human M4, the “Emin (human M4)” value was 3.93% and the IC50 amounted to 114 nM. Besides, the “Emin (rat M4)” value at Rat M4 stood at 12.3%. Besides, at Rat M4 (setting [1]), the IC50 amounted to 1.89 µM.
For `CC(=O)Nc1ccc(-c2ccc(NC[C@@H]3CC34CCN(Cc3ccc(F)cc3)CC4)nn2)cc1` [Compound 123, N-[4-[6-[[(2R)-6-[(4-fluorophenyl)methyl]-6-azaspiro[2.5]octan-2-yl]methylamino]pyridazin-3-yl]phenyl]acetamide] the same measures were 5%, 575 nM, 4% and 0.207 µM.
Take `Fc1ccc(Cl)c(-c2ccc(NCC3CC34CCN(CC3CCCOC3)CC4)nn2)c1` (stereo not shown) [Compound 15, 6-(2-chloro-5-fluoro-phenyl)-N-[[6-(tetrahydropyran-3-ylmethyl)-6-azaspiro[2.5]octan-2-yl]methyl]pyridazin-3-amine]: on Human M4, the “Emin (human M4)” value was 3.08% and the IC50 is 6.51 nM. Also, the “Emin (rat M4)” value at Rat M4 came to 4.24%. Besides, at Rat M4 (setting [1]), the IC50 is 0.519 µM.
For `Cc1nn(C)cc1-c1ccc(NCC2CC23CCN(CC2CCOCC2)CC3)nn1` (stereo not shown) [Compound 61, 6-(1,3-dimethylpyrazol-4-yl)-N-[[6-(tetrahydropyran-4-ylmethyl)-6-azaspiro[2.5]octan-2-yl]methyl]pyridazin-3-amine] the same measures were 3.54%, 11.5 nM, 5.67% and 0.199 µM.
For `Fc1ccc(Cl)c(-c2ccc(NC[C@H]3CC34CCN(CC3CCCCC3)CC4)nn2)c1` [Compound 67, (S)-6-(2-chloro-5-fluoro-phenyl)-N-[[6-(cyclohexylmethyl)-6-azaspiro[2.5]octan-2-yl]methyl]pyridazin-3-amine], at Human M4, the “Emin (human M4)” value turned out to be 3.66% and the half-maximal inhibitory concentration (IC50) was 27.8 nM. Also, the “Emin (rat M4)” value at Rat M4 is on record as 4.36%. The IC50 at Rat M4 (setting [1]) turned out to be 0.527 µM.
Taken in the same sequence, the figures for `CCCC(C)CN1CCC2(CC1)CC2CNc1ccc(-c2cn(C)nc2C)nn1` (stereo not shown) [Compound 52, 6-(1,3-dimethylpyrazol-4-yl)-N-[[6-(2-methylpentyl)-6-azaspiro[2.5]octan-2-yl]methyl]pyridazin-3-amine] were 3.9%, 18.6 nM, 5.80% and 0.578 µM.
Take `c1ccc(-c2cnc(NCC3CC34CCN(CC3CCOCC3)CC4)s2)cc1` (stereo not shown) [Compound 73, 5-phenyl-N-[[6-(tetrahydropyran-4-ylmethyl)-6-azaspiro[2.5]octan-2-yl]methyl]thiazol-2-amine]: on Human M4, the “Emin (human M4)” value turned out to be 8.96%. Also, the concentration for half-maximal inhibition (IC50) on Human M4 is 6550 nM; at Rat M4 (setting [1]), 3.09 µM. For the same compound, the “Emin (rat M4)” value at Rat M4 is recorded as 9.84%.
Regarding `CC(=O)Nc1ccc(-c2ccc(NC[C@@H]3CC34CCN(CC3CCCCCC3)CC4)nn2)cc1` [Compound 119, N-[4-[6-[[(2R)-6-(cycloheptylmethyl)-6-azaspiro[2.5]octan-2-yl]methylamino]pyridazin-3-yl]phenyl]acetamide], on Human M4, the “Emin (human M4)” value was 3% and the IC50 amounted to 8.18 nM. In addition, the “Emin (rat M4)” value on Rat M4 stood at 5%. Also, the IC50 at Rat M4 (setting [1]) was 0.0165 µM.
As for `Cc1nn(C)cc1-c1ccc(NCC2CC23CCN(CC2CC2)CC3)nn1` (stereo not shown) [Compound 55, N-[[6-(cyclopropylmethyl)-6-azaspiro[2.5]octan-2-yl]methyl]-6-(1,3-dimethylpyrazol-4-yl)pyridazin-3-amine], at Human M4, the “Emin (human M4)” value is 16.7%. Also, the IC50 at Human M4 is 2890 nM; at Rat M4 (cells printed in μM, decrease of the EC80 acetylcholine response), greater than 10 µM. Besides, the “Emin (rat M4)” value at Rat M4 came out at 45.7%.
Turning to `Fc1ccc(Cl)c(-c2ccc(NC[C@@H]3CC34CCN(CC35CC6CC(CC(C6)C3)C5)CC4)nn2)c1` [Compound 115, N-[[(2R)-6-(1-adamantylmethyl)-6-azaspiro[2.5]octan-2-yl]methyl]-6-(2-chloro-5-fluoro-phenyl)pyridazin-3-amine], on Human M4, the “Emin (human M4)” value stood at 2% and the IC50 came out at 69.8 nM. For the same compound, the “Emin (rat M4)” value at Rat M4 came out at 3%. Further, at Rat M4 (setting [1]), the half-maximal inhibitory concentration (IC50) stood at 0.152 µM.
In the case of `CC(C)(C)CCN1CCC2(CC1)CC2CNc1ccc(-c2ccc(F)cc2)nn1` (stereo not shown) [Compound 2, N-((6-(3,3-Dimethylbutyl)-6-azaspiro[2.5]octan-1-yl)methyl)-6-(4-fluorophenyl)pyridazin-3-amine], on Human M4, the “Emin (human M4)” value amounted to 2.54% and the half-maximal inhibitory concentration (IC50) worked out at 42.4 nM. Moreover, the “Emin (rat M4)” value at Rat M4 worked out at 3.35%. Also, at Rat M4 (setting [1]), the IC50 came to 0.159 µM.
Turning to `Fc1ccc(Cl)c(-c2ccc(NC[C@@H]3CC34CCN(CC3CC5C=CC3C5)CC4)nn2)c1` (stereo partly drawn) [Compound 108, N-(((1R)-6-(bicyclo[2.2.1]hept-5-en-2-ylmethyl)-6-azaspiro[2.5]octan-1-yl)methyl)-6-(2-chloro-5-fluorophenyl)pyridazin-3-amine], at Human M4, the “Emin (human M4)” value is 2%. Further, the IC50 was determined as 9.89 nM at Human M4 and 0.0481 µM at Rat M4 (setting [1]). Also, the “Emin (rat M4)” value on Rat M4 turned out to be 3%.
Turning to `CC(C)(C)CCN1CCC2(CC1)CC2CNc1ccc(N2CCC(F)(F)CC2)nn1` (stereo not shown) [Compound 80, 6-(4,4-difluoro-1-piperidyl)-N-[[6-(3,3-dimethylbutyl)-6-azaspiro[2.5]octan-2-yl]methyl]pyridazin-3-amine], on Human M4, the “Emin (human M4)” value is recorded as 3% and the IC50 was determined as 39.8 nM. Further, the “Emin (rat M4)” value at Rat M4 is 3%. Also, the 50% inhibitory concentration (IC50) at Rat M4 (setting [1]) is 0.0934 µM.
`Cc1cnn(C)c1-c1ccc(NC(=O)C2CC23CCN(CC2CC4C=CC2C4)CC3)nn1` (stereo not shown) [Compound 8, 6-(5-bicyclo[2.2.1]hept-2-enylmethyl)-N-[6-(2,4-dimethylpyrazol-3-yl)pyridazin-3-yl]-6-azaspiro[2.5]octane-2-carboxamide]: the “Emin (human M4)” value on Human M4 came to 65.0%. The results for the IC50 on Human M4 and on Rat M4 (setting [1]) were 928 nM and 3.64 µM, respectively. Further, at Rat M4, the “Emin (rat M4)” value is reported as 10.8%.
Taken in the same sequence, the figures for `C1=CC2CC1CC2CN1CCC2(CC1)CC2CNc1ncc(-c2ccccc2)s1` (stereo not shown) [Compound 71, N-[[6-(5-bicyclo[2.2.1]hept-2-enylmethyl)-6-azaspiro[2.5]octan-2-yl]methyl]-5-phenyl-thiazol-2-amine] were 4.74%, 1270 nM, 0.833 µM and 4.72%.
With `Cc1nn(C)cc1-c1cnc(NCC2CC23CCN(CC2CC4C=CC2C4)CC3)cn1` (stereo not shown) [Compound 21, N-[[6-(5-bicyclo[2.2.1]hept-2-enylmethyl)-6-azaspiro[2.5]octan-2-yl]methyl]-5-(1,3-dimethylpyrazol-4-yl)pyrazin-2-amine], on Human M4, the “Emin (human M4)” value is recorded as 3.65% and the IC50 worked out at 30.1 nM. For the same compound, the “Emin (rat M4)” value on Rat M4 amounted to 4.56%. The IC50 on Rat M4 (setting [1]) turned out to be 0.191 µM.
On to `C1=CC2CC1CC2CN1CCC2(CC1)CC2CNc1ccc(N2CCOCC2)nn1` (stereo not shown) [Compound 82, N-[[6-(5-bicyclo[2.2.1]hept-2-enylmethyl)-6-azaspiro[2.5]octan-2-yl]methyl]-6-morpholino-pyridazin-3-amine], for which, at Human M4, the “Emin (human M4)” value turned out to be 3%. Further, the IC50 at Human M4 amounted to 5.06 nM; on Rat M4 (setting [1]), 0.0482 µM. On Rat M4, the “Emin (rat M4)” value was found to be 6%.
